Values quoted from earlier work as cited in publication PMC2887613 (ChemMedChem, 2009).
Where two headings read alike, the source gives them in different places.

Tests used:
[1] = biological target: T1, rat M4 (Rattus norvegicus, UniProt P08485); details: rat M4/Gqi5-expressing cells, first generation compounds
T1 sequence (P08485 1-478): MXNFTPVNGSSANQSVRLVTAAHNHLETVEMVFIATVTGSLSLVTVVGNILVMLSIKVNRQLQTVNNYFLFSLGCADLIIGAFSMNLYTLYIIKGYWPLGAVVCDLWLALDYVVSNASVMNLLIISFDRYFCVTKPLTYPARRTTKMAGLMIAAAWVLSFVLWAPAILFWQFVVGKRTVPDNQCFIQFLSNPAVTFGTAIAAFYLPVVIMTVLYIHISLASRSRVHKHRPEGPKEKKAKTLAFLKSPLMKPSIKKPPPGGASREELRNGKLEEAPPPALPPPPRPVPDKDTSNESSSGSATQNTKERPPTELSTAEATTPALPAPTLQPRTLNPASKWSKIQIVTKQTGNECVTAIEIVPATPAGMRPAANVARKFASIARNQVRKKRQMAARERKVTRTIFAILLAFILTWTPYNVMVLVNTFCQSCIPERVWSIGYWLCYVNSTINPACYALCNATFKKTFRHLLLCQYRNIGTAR

[2] = biological target: T1, rat M4
[3] = lead compound
[4] = rat, microsomes, 1.5 h
[5] = human, microsomes, 1.5 h

| brain penetration | EC50 [1] [nM] | leftward shift of an ACh CRC ([2]; Ca2+ mobilization assay in rat M4/Gqi5-expressing cells) [fold] | ACh CRC fold-shift ([2]; first generation compounds, previously reported) [x] | solubility [3] | parent remaining [4] [%] | brain penetration (in vivo) | parent remaining [5] [%] | Compound |
| --- | --- | --- | --- | --- | --- | --- | --- | --- |
| lack of brain penetration | 400 | 47 | 47 | solubility issues | – | – | – | Cc1cc(C)c2c(N)c(C(=O)NCc3ccc(Cl)cc3)sc2n1 [Compd 1] |
| – | – | – | – | – | < 10 | centrally penetrating | < 10 | COc1ccc(CNC(=O)c2sc3nc(C)cc(C)c3c2N)cc1 [Compd 3] |
